Experimental data as given in PMC5622936, “Novel Carbonyl Analogs of Tamoxifen: Design, Synthesis, and Biological Evaluation” (Frontiers in Chemistry, 2017).

Tests used:
[1] = target: T1, ERβ (Homo sapiens, UniProt Q92731); assay: fluorescence polarization competition, displacement of fluorescent estrogen ES2 (Beacon […]); type: binding; conditions: 1 nM ES2 tracer, relative to estradiol = 100
T1 construct: gene ESR2; isolated recombinant human ERβ (Invitrogen)

[2] = target: T2, ERα (Homo sapiens, UniProt P03372); assay: as above; type: binding; conditions: 1 nM ES2 tracer, relative to estradiol = 100
T2 construct: gene ESR1; isolated recombinant human ERα (Invitrogen)
T2 sequence (P03372 1-595): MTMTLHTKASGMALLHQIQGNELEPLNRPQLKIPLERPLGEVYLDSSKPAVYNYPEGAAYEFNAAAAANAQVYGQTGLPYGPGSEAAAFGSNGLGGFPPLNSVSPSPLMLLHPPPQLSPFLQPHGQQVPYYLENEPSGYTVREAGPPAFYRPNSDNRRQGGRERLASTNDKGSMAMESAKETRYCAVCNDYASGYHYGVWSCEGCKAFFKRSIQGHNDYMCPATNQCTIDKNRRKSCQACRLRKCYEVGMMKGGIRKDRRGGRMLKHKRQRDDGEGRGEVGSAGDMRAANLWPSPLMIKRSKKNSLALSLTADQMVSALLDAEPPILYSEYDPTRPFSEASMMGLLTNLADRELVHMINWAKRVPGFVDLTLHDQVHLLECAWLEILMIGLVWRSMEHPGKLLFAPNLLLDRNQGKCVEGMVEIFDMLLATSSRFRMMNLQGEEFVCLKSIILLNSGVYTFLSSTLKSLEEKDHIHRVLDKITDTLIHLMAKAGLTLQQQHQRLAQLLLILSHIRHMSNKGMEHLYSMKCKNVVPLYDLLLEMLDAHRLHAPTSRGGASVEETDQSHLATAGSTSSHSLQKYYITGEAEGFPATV

T1 sequence (Q92731 whole entry): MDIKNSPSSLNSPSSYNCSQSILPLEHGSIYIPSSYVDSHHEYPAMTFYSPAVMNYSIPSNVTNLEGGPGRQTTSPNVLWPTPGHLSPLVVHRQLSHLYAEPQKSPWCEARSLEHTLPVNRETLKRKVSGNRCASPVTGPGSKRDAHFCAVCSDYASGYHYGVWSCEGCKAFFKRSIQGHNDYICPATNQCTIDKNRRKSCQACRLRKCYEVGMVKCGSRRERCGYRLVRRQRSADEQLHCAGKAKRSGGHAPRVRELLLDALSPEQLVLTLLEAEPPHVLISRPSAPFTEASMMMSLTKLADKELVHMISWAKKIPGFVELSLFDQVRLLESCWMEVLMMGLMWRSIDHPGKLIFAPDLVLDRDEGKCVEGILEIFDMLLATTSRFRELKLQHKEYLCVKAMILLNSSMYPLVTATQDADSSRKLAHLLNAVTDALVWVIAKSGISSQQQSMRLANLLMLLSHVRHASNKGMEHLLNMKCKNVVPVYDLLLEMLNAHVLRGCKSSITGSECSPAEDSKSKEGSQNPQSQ

Row | Structure (SMILES) | RBAβ^a [1] | RBAα^a [2] | RBAβ^a ([1]; E/Z isomer tested not stated) | RBAα^a ([2]; E/Z isomer tested not stated)
1 | CC/C(=C(\c1ccc(O)cc1)c1ccc(C(=O)NCCCBr)cc1)c1ccc(O)cc1 [compound 14, (E)-4-[1,2-bis-(4-hydroxy-phenyl)-but-1-enyl]-n-(3-bromo-propyl)-benzamide] | 6.15 ± 0.6 | 7.94 ± 0.6 |  | 
2 | CC/C(=C(\c1ccc(O)cc1)c1ccc(OC(=O)CBr)cc1)c1ccc(O)cc1 [6b, Z-Bromo-acetic acid 4-[1,2 bis-(4-hydroxy-phenyl)-but-1-enyl]-phenyl ester] | 82.39 ± 4.9 | 96.37 ± 7.2 |  | 
3 | CC/C(=C(\c1ccc(O)cc1)c1ccc(OC(=O)CCl)cc1)c1ccc(O)cc1 [6a, Z-Chloro-acetic acid 4-[1,2 bis-(4-hydroxy-phenyl)-but-1-enyl]-phenyl ester] | 62.14 ± 4.3 | 120.08 ± 8.5 |  | 
4 | CC/C(=C(\c1ccc(O)cc1)c1ccc(C(=O)NCCBr)cc1)c1ccc(O)cc1 [compound 13, (E)-4-[1,2-bis-(4-hydroxy-phenyl)-but-1-enyl]-n-(2-bromo-ethyl)-benzamide] | 8.40 ± 2.5 | 17.4 ± 3.0 |  | 
5 | CCC(=C(c1ccc(O)cc1)c1ccc(C(=O)O)cc1)c1ccc(O)cc1 (mixture of isomers) [compound 10, 4-[1,2-bis-(4-hydroxy-phenyl)-but-1-enyl]-benzoic acid] |  |  | 16.3 ± 3.9 | 12.2 ± 2.3

Other lines, results leading:

Row | RBAβ^a [1] | RBAα^a [2] | RBAβ^a ([1]; E/Z isomer tested not stated) | RBAα^a ([2]; E/Z isomer tested not stated) | Structure (SMILES)
6 | 72.72 ± 2.1 | 101.35 ± 10.2 |  |  | CC/C(=C(\c1ccc(O)cc1)c1ccc(OC(=O)CN(C)C)cc1)c1ccc(O)cc1 [8a, Z-Dimethylamino-acetic acid 4-[1,2-bis-(4-hydroxy-phenyl)-but-1-enyl]-phenyl ester]
7 | 16.79 ± 1.4 | 8.06 ± 0.9 |  |  | CC/C(=C(\c1ccc(O)cc1)c1ccc(OC(=O)CN2CCOCC2)cc1)c1ccc(O)cc1 [8c, Z-Morpholin-4-yl-acetic acid 4-[1,2-bis-(4-hydroxy-phenyl)-but-1-enyl]-phenyl ester]
8 | 77.37 ± 4.5 | 108.12 ± 11.9 |  |  | CC/C(=C(\c1ccc(O)cc1)c1ccc(OC(=O)CN(CC)CC)cc1)c1ccc(O)cc1 [8b, Z-Diethylamino-acetic acid 4-[1,2-bis-(4-hydroxy-phenyl)-but-1-enyl]-phenyl ester]
